Where a SMILES comes first, the peptide text is derived from it. Bridges are numbered along the chain shown (N, C = ends). Where no end group is shown, it is not given here. [ ]: non-standard residue; d: D form. The star is where a group is joined. NMeR = CN[C@@H](CCCNC(=N)N)C(=O)O; X1 = CC(C)CCOc1ccc(CCN*)cc1; Orn = NCCC[C@H](N)C(=O)O; Bz = O=C(c1ccccc1)*

The Kd is the concentration at which binding is half-saturated.

T1 sequence (P15056 whole entry): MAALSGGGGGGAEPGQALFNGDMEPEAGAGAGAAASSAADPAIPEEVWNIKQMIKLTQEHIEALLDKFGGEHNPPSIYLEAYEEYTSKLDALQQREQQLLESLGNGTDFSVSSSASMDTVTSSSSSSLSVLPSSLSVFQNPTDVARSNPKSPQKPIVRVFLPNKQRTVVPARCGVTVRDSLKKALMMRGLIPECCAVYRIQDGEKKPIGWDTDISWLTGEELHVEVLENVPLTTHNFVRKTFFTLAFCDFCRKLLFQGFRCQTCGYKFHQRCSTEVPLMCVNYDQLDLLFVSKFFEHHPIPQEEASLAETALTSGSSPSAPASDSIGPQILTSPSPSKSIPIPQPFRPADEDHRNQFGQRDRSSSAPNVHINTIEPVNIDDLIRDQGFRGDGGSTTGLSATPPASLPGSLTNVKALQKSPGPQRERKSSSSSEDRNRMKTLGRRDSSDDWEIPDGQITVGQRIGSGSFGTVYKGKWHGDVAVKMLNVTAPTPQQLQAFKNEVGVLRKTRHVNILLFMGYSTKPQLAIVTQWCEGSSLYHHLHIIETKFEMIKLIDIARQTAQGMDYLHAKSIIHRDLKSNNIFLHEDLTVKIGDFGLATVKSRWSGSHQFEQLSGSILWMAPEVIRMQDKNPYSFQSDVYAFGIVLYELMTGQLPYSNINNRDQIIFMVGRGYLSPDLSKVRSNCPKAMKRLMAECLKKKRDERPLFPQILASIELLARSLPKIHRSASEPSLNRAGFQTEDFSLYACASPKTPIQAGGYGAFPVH

The first data set addresses T1, B-Raf (Homo sapiens, UniProt P15056). Description: Dissociation constant (Kd) determination from intrinsic Trp fluorescence (ITF).
Details: not given
In kind it is binding.
Turning to `CSCC[C@H](NC(=O)[C@H](Cc1ccccc1)NC(=O)[C@H](CC(C)C)NC(=O)[C@H](CC(C)C)NC(=O)[C@@H]1CCC(=O)NCCCC[C@H](N)C(=O)N[C@@H](CCCNC(=N)N)C(=O)N[C@@H](Cc2c[nH]cn2)C(=O)N2CCC[C@H]2C(=O)N[C@@H](C)C(=O)N1)C(=O)NCC(N)=O` [compound 61] (H-KRHPAELLFMG-NH2; lactam 1-6), the Kd was determined as 0.16 ± 0.02 µM.

As to `CC(C)[C@@H]1NC(=O)[C@H](Cc2c[nH]cn2)NC(=O)[C@H](CCCNC(=N)N)NC(=O)[C@@H](N)CCCCNC(=O)CC[C@@H](C(N)=O)NC(=O)[C@H](C)NC1=O` [compound 48] (H-KRHVAE-NH2; lactam 1-6), the Kd came to 0.3 ± 0.03 µM.

As for `CSCC[C@H](NC(=O)[C@H](Cc1ccccc1)NC(=O)[C@H](CC(C)C)NC(=O)[C@H](CC(C)C)NC(=O)[C@@H]1CCC(=O)NCCCC[C@H](NC(=O)[C@H](CCCCN)NC(=O)[C@H](CCCNC(=N)N)NC(=O)[C@H](CC(C)C)NC(=O)[C@@H](N)C(C)C)C(=O)N[C@@H](CCCNC(=N)N)C(=O)N[C@@H](Cc2c[nH]cn2)C(=O)N[C@@H](C(C)C)C(=O)N[C@@H](C)C(=O)N1)C(=O)NCC(N)=O` [compound 59], the affinity, expressed as Kd, was 0.061 ± 0.01 µM.

Take `CSCC[C@H](NC(=O)[C@H](Cc1ccccc1)NC(=O)[C@H](CCC(C)C)NC(=O)[C@H](CC(C)C)NC(=O)[C@@H]1CCC(=O)NCCC[C@H](NC(=O)[C@H](CCCCN)NC(=O)[C@H](CCCNC(=N)N)NC(=O)[C@H](CC(C)C)NC(=O)[C@@H](N)C(C)C)C(=O)N[C@@H](CCCNC(=N)N)C(=O)N[C@@H](Cc2c[nH]cn2)C(=O)N[C@@H](C(C)C)C(=O)N[C@@H](C)C(=O)N1)C(=O)NCC(N)=O` [compound 57]: the dissociation constant Kd was determined as 0.43 ± 0.03 µM.

For the molecule `CSCC[C@H](NC(=O)[C@H](Cc1ccccc1)NC(=O)[C@H](CC(C)C)NC(=O)[C@H](CC(C)C)NC(=O)[C@@H]1CCC(=O)NCCCC[C@H](N)C(=O)N[C@@H](CCCNC(=N)N)C(=O)N[C@@H](Cc2c[nH]cn2)C(=O)N[C@@H](C(C)C)C(=O)N[C@@H](C)C(=O)N1)C(=O)NCC(N)=O` [compound 47] (H-KRHVAELLFMG-NH2; lactam 1-6), the Kd amounted to 0.59 ± 0.02 µM.

`CSCC[C@H](NC(=O)[C@H](Cc1ccccc1)NC(=O)[C@H](CC(C)C)NC(=O)[C@H](CC(C)C)NC(=O)[C@@H]1CCC(=O)NCCCC[C@H](NC(=O)[C@H](CCCCN)NC(=O)[C@H](CCCNC(=N)N)NC(=O)[C@H](CC(C)C)NC(=O)[C@@H](N)C(C)C)C(=O)N[C@@H](CCCNC(=N)N)C(=O)N[C@@H](Cc2c[nH]cn2)C(=O)N[C@@H](C(C)C)C(=O)N[C@@H](CC(N)=O)C(=O)N1)C(=O)NCC(N)=O` [compound 53] registered an equilibrium dissociation constant (Kd) of 1.89 ± 0.33 µM.

Turning to `CC[C@H](C)[C@H](NC(=O)[C@H](CC(C)C)NC(=O)[C@@H]1CCC(=O)NCCC[C@H](NC(=O)[C@H](CCCCN)NC(=O)[C@H](CCCNC(=N)N)NC(=O)[C@H](CC(C)C)NC(=O)[C@@H](N)C(C)C)C(=O)N[C@@H](CCCNC(=N)N)C(=O)N[C@@H](Cc2c[nH]cn2)C(=O)N[C@@H](C(C)C)C(=O)N[C@@H](C)C(=O)N1)C(=O)N[C@@H](Cc1ccccc1)C(=O)N[C@@H](CCSC)C(=O)NCC(N)=O` [compound 58] (H-VLRK[Orn]RHVAELIFMG-NH2; lactam 5-10; N-terminus assumed), binding was characterised by a dissociation constant (Kd) of 0.17 ± 0.06 µM.

For `CSCC[C@H](NC(=O)[C@H](Cc1ccccc1)NC(=O)[C@H](CC(C)C)NC(=O)[C@H](CC(C)C)NC(=O)[C@@H]1CCC(=O)NCCCC[C@H](NC(=O)[C@H](CCCCN)NC(=O)[C@H](CCCNC(=N)N)NC(=O)[C@H](CC(C)C)NC(=O)[C@@H](N)C(C)C)C(=O)N(C)[C@@H](CCCNC(=N)N)C(=O)N[C@@H](Cc2c[nH]cn2)C(=O)N[C@@H](C(C)C)C(=O)N[C@@H](C)C(=O)N1)C(=O)NCC(N)=O` [compound 60], the affinity, expressed as Kd, was 0.039 ± 0.02 µM.

The data set is the same for the next values; noted with them: FIG. 1, unit not given.
GVLRKTHHVNILGFWGYST [SEQ ID NO: 2]: the “Kd, binding affinity to the dimer forming interface of B-Raf” value (“Kd, binding affinity” below) is “no measurable binding”.

Consider GVLRKTRHVNILLDMGYST [SEQ ID NO:14], for which the “Kd, binding affinity” value is listed as “no measurable binding”.

Regarding GVLRKTRFVNILLFMGYST [SEQ ID NO: 9], the “Kd, binding affinity” value is “no measurable binding”.

The data set is the same for the next values; noted with them: Table 2, binding affinity with BRAF, cyclized vs linear peptides; read-out: Kd.
Consider VLRKTRHVNILLFM [compound 16], for which the Kd was found to be 5.75 ± 1.2 µM.

The next data set has as its system SBcl2 melanoma cell. Description: Melanoma cell growth / colony formation. In kind it is cell-based, human. Conditions: SBcl2 melanoma cells.
Regarding GVLAATAAVNALLFAGYST [SEQ ID NO: 68], the “concentration that impaired cell growth” value was determined as 7.2 µM.

Still in this data set, the particulars now being: control vs FAM-TAT-SEQ ID NO: 17.
For the molecule GVLAATAAVNALLFAGYST [SEQ ID NO: 68], the “growth-impairing concentration relative to the test sequence” value amounted to 4 fold.

A further data set has as its system NRASQ61K-mutant SBcl2 melanoma cells. The data set is described as follows: Western blotting of MEK/ERK signalling in melanoma cells treated with peptide and PLX4032. In kind it is cell-based, human. The settings on record: FIG. 2A, cells electroporated with peptide, 1 μM PLX4032 1 hour or DMSO. On the technique in general: A western blot detects proteins with antibodies after separation by electrophoresis.
Description: Following recovery at 37° C. for 30 minutes, the cells were treated with 1 μM PLX4032 for 1 hour or DMSO as a vehicle control. Subsequently, the cells were harvested, lysed using RIPA buffer and analyzed by Western blotting using the indicated antibodies. […] Four hours prior to harvest, the cells were treated with 1 μM vemurafenib (PLX4032), or the same volume of DMSO as vehicle control. RIPA buffer lysates were subjected to Western blotting using the indicated antibodies. Detection of Hsp90 served as a representative loading control.
NRAS^Q61K-mutant SBCl2 melanoma cells were electroporated with the BioRad Gene Pulser XCell™ in the presence of the indicated concentrations of peptide. Following recovery at 37° C. for 30 minutes, cells were treated with 1 μM PLX4032 for 1 hour or DMSO as a vehicle control. Subsequently, the cells were harvested, lysed using RIPA buffer, and analyzed by Western blotting using the indicated antibodies.
Consider `CC[C@H](C)[C@H](NC(=O)[C@H](CC(N)=O)NC(=O)[C@@H](NC(=O)[C@H](Cc1cnc[nH]1)NC(=O)[C@H](CCCNC(=N)N)NC(=O)[C@@H](NC(=O)[C@H](CCCCN)NC(=O)[C@H](CCCNC(=N)N)NC(=O)[C@H](CC(C)C)NC(=O)[C@@H](NC(=O)CN)C(C)C)[C@@H](C)O)C(C)C)C(=O)N[C@@H](CC(C)C)C(=O)N[C@@H](CC(C)C)C(=O)N[C@@H](Cc1ccccc1)C(=O)N[C@@H](CCSC)C(=O)NCC(=O)N[C@@H](Cc1ccc(O)cc1)C(=O)N[C@@H](CO)C(=O)N[C@H](C(=O)O)[C@@H](C)O` [SEQ ID NO: 1], for which the “downstream signaling of MEK and ERK (pMEK, pERK)” value was “reduce downstream signaling of MEK and ERK”.

In another data set the target is T1, B-Raf. Description: Isothermal Titration Calorimetry (ITC) of B-Raf binding of peptides. The settings on record: change in enthalpy. (In general: In ITC the heat of successive injections is recorded.)
Excerpt: Isothermal Titration Calorimetry (ITC) of B-Raf Binding of Peptides
An isothermal titration calorimeter composed of two identical cells surrounded by an adiabatic jacket was used to perform ITC measurements. The thermopile/thermocouple circuits were used to detect temperature differences between a reference cell (filled with buffer or water) and a sample cell containing the macromolecule. During an experiment, ligand is titrated into the sample cell in precisely known aliquots, causing heat to be either taken up or evolved (depending on the nature of the reaction). Measurements consist of the time-dependent input of power required to maintain equal temperatures between the sample and reference cells. In an exothermic reaction, the temperature in the sample cell increases upon addition of ligand. This causes the feedback power to the sample cell to be decreased (remember: a reference power is applied to the reference cell) in order to maintain an equal temperature between the two cells. In an endothermic reaction, the opposite occurs; the feedback circuit increases the power in order to maintain a constant temperature (isothermic/isothermal operation). […] The pattern of these heat effects as a function of the molar ratio [ligand]/[macromolecule] can then be analyzed to give the thermodynamic parameters of the interaction under study.
`CC[C@H](C)[C@H](NC(=O)[C@H](CC(N)=O)NC(=O)[C@@H](NC(=O)[C@H](Cc1c[nH]cn1)NC(=O)[C@H](CCCNC(=N)N)NC(=O)[C@H](C)NC(=O)[C@H](CCCCN)NC(=O)[C@H](CCCNC(=N)N)NC(=O)[C@H](CC(C)C)NC(=O)[C@@H](NC(=O)CN)C(C)C)C(C)C)C(=O)N[C@@H](CC(C)C)C(=O)N[C@@H](CC(C)C)C(=O)N[C@@H](Cc1ccccc1)C(=O)N[C@@H](CCSC)C(=O)NCC(=O)N[C@@H](Cc1ccc(O)cc1)C(=O)N[C@@H](CO)C(=O)N[C@H](C(=O)O)[C@@H](C)O` [SEQ ID NO: 8] registered a ΔH of -34.8 kJ/mol.

The same data set, now with this note: change in entropy, text b156.
In the case of `CC[C@H](C)[C@H](NC(=O)[C@H](CC(N)=O)NC(=O)[C@@H](NC(=O)[C@H](Cc1c[nH]cn1)NC(=O)[C@H](CCCNC(=N)N)NC(=O)[C@H](C)NC(=O)[C@H](CCCCN)NC(=O)[C@H](CCCNC(=N)N)NC(=O)[C@H](CC(C)C)NC(=O)[C@@H](NC(=O)CN)C(C)C)C(C)C)C(=O)N[C@@H](CC(C)C)C(=O)N[C@@H](CC(C)C)C(=O)N[C@@H](Cc1ccccc1)C(=O)N[C@@H](CCSC)C(=O)NCC(=O)N[C@@H](Cc1ccc(O)cc1)C(=O)N[C@@H](CO)C(=O)N[C@H](C(=O)O)[C@@H](C)O` [SEQ ID NO: 8], the ΔS is listed as −28.4 J/mol·K.

Test system in the next data set: not listed separately
The data set is described as follows: Parallel artificial membrane permeability assay (PAMPA). In kind it is in vitro ADME. The settings on record: phospholipid and dodecane artificial membrane, mass spectroscopy. Here is the method: A parallel artificial membrane permeability assay (PAMPA) was carried out using phospholipid and dodecane as the artificial membrane.
For the molecule `CC[C@H](C)[C@H](NC(=O)[C@H](CC(N)=O)NC(=O)[C@@H](NC(=O)[C@H](Cc1cnc[nH]1)NC(=O)[C@H](CCCNC(=N)N)NC(=O)[C@@H](NC(=O)[C@H](CCCCN)NC(=O)[C@H](CCCNC(=N)N)NC(=O)[C@H](CC(C)C)NC(=O)[C@@H](NC(=O)CN)C(C)C)[C@@H](C)O)C(C)C)C(=O)N[C@@H](CC(C)C)C(=O)N[C@@H](CC(C)C)C(=O)N[C@@H](Cc1ccccc1)C(=O)N[C@@H](CCSC)C(=O)NCC(=O)N[C@@H](Cc1ccc(O)cc1)C(=O)N[C@@H](CO)C(=O)N[C@H](C(=O)O)[C@@H](C)O` [SEQ ID NO: 1], the passive permeability entry was “no detectable trace of passive permeability”.

`CC(C)[C@@H]1NC(=O)[C@H](Cc2c[nH]cn2)NC(=O)[C@H](CCCNC(=N)N)NC(=O)[C@@H](N)CCCCNC(=O)CC[C@@H](C(N)=O)NC(=O)[C@H](C)NC1=O` [compound 48] (H-KRHVAE-NH2; lactam 1-6): the passive permeability result is “no detectable trace of passive permeability”.

`CSCC[C@H](NC(=O)[C@H](Cc1ccccc1)NC(=O)[C@H](CC(C)C)NC(=O)[C@H](CC(C)C)NC(=O)[C@@H]1CCC(=O)NCCCC[C@H](NC(=O)[C@H](CCCCN)NC(=O)[C@H](CCCNC(=N)N)NC(=O)[C@@H](N)CC(C)C)C(=O)N[C@@H](CCCNC(=N)N)C(=O)N[C@@H](Cc2c[nH]cn2)C(=O)N[C@@H](C(C)C)C(=O)N[C@@H](C)C(=O)N1)C(=O)NCC(N)=O` [compound 38]: the passive permeability entry is “no detectable trace of passive permeability”.

Consider `CC(C)CCOc1ccc(CCNC(=O)[C@@H]2CCC(=O)NCCCC[C@H](NC(=O)c3ccccc3)C(=O)N(C)[C@@H](CCCNC(=N)N)C(=O)N[C@H](C)C(=O)N3CCC[C@H]3C(=O)N[C@@H](C)C(=O)N2)cc1` [compound 64] (Bz-K[NMeR][dA]PAE-X1; lactam 1-6), for which the passive permeability result was “no detectable trace of passive permeability”.

For the next data set, the target named is dimer forming interface (Homo sapiens, UniProt P15056). Description: Kd (μM).
dimer forming interface, sequence (P15056 2-766 limits assumed): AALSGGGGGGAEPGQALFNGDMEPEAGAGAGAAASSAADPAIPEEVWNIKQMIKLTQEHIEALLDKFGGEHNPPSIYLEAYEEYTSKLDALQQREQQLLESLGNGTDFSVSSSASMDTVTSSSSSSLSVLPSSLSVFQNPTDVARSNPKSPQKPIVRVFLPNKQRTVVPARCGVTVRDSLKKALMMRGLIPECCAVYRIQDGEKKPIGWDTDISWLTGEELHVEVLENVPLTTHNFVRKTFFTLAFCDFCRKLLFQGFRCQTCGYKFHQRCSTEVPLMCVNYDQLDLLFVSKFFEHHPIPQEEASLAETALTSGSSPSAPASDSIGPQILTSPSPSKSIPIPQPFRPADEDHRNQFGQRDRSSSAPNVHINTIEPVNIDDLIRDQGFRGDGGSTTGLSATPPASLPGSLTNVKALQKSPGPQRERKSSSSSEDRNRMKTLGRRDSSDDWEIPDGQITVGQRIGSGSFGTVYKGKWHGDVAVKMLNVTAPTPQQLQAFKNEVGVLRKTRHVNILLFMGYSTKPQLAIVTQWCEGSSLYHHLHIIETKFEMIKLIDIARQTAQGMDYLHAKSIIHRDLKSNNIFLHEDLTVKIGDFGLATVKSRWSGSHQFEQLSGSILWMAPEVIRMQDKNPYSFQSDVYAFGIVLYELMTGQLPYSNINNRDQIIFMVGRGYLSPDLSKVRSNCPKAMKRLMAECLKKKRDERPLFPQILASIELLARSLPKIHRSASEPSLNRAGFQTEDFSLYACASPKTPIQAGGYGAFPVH
Details: not given
On to VARKTRHVNILLFMG [compound 21], for which the affinity, expressed as Kd, was 0.45 ± 0.03 µM.

As for VLRKTRHVNIALFMG [compound 28], binding was characterised by a dissociation constant (Kd) of 1.02 ± 0.14 µM.

In turn, VLRKTAHVNILLFMG [compound 24] returned a dissociation constant (Kd) of 2.4 ± 0.35 µM.

Regarding VLRKTRHVNILLFAG [compound 30], the Kd is 0.54 ± 0.15 µM.

As for LLKTRHVNILLFMG [compound 32], binding was characterised by a dissociation constant (Kd) of 0.55 ± 0.105 µM.

Take VLRKTRHVNILLAMG [compound 29]: binding was put at a Kd of 0.57 ± 0.08 µM.

Consider `CC[C@H](C)[C@H](NC(=O)[C@H](CC(N)=O)NC(=O)[C@@H](NC(=O)[C@H](Cc1c[nH]cn1)NC(=O)[C@H](CCCNC(=N)N)NC(=O)[C@@H](NC(=O)[C@H](CCCCN)NC(=O)[C@H](CCCNC(=N)N)NC(=O)[C@H](CC(C)C)NC(=O)[C@@H](NC(C)=O)C(C)C)[C@@H](C)O)C(C)C)C(=O)N[C@@H](CC(C)C)C(=O)N[C@@H](CC(C)C)C(=O)N[C@@H](Cc1ccccc1)C(=O)N[C@@H](CCSC)C(=O)NCC(=O)O` [compound 19], for which the affinity, expressed as Kd, was 0.8 ± 0.083 µM.

In turn, LRKTRHVNILLFMG [SEQ ID NO: 31] came in with a dissociation constant (Kd) of 0.19 ± 0.13 µM.

On to VLRKTRHVNALLFMG [compound 27], for which the Kd stood at 2.69 ± 0.35 µM.

VLAKTRHVNILLFMG [SEQ ID NO: 22]: the dissociation constant (Kd) was 0.36 ± 0.03 µM.

The molecule VLRKTRAVNILLFMG [compound 25] gave a dissociation constant Kd of 2.7 ± 0.4 µM.

These data come from patent US12559733B2, “Optimization of type IV BRAF inhibitors for the treatment of melanoma” (UNIVERSITY OF SOUTH CAROLINA, priority 2020, dated 2026).
